Data: patent US20080234262A1 (Wyeth, priority 2007, published 2008)
pIC50: −log10 of the molar value.

Columns and labels:
breast line MDA468 = experiment: In vitro cell culture growth assay (MTS), MDA468; type: cell-based, human; conditions: Homo sapiens, 72 h, MDA468 cells, three days after drug treatment
Method in brief: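 Growth measured as percent of same-plate vehicle control by MTS metabolic dye conversion (A490). Breast MDA468 and prostate LNCap cells, plated a day ahead, were exposed to compounds for 3 days.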

prostate line LNCap = experiment: In vitro cell culture growth assay (MTS), LNCap; type: cell-based, human; conditions: Homo sapiens, LNCaP, 72 h, LNCap cells, three days after drug treatment;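 also: viable cell density read by absorbance at 490 nm, growth expressed as percent of vehicle-treated cells on the same plate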
PI3K = PI3K (Homo sapiens, UniProt P42336); experiment: Fluorescence polarization assay for PI3K; type: biochemical; conditions: PI3Kα; read-out: PI3Kα IC50;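 also: PI3K kinase reaction on PIP2 with ATP, 30-60 min, product sensed by GST-GRP with red probe in fluorescence polarization (mP), controls without enzyme and at zero time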
Sequence of PI3K (P42336 whole entry): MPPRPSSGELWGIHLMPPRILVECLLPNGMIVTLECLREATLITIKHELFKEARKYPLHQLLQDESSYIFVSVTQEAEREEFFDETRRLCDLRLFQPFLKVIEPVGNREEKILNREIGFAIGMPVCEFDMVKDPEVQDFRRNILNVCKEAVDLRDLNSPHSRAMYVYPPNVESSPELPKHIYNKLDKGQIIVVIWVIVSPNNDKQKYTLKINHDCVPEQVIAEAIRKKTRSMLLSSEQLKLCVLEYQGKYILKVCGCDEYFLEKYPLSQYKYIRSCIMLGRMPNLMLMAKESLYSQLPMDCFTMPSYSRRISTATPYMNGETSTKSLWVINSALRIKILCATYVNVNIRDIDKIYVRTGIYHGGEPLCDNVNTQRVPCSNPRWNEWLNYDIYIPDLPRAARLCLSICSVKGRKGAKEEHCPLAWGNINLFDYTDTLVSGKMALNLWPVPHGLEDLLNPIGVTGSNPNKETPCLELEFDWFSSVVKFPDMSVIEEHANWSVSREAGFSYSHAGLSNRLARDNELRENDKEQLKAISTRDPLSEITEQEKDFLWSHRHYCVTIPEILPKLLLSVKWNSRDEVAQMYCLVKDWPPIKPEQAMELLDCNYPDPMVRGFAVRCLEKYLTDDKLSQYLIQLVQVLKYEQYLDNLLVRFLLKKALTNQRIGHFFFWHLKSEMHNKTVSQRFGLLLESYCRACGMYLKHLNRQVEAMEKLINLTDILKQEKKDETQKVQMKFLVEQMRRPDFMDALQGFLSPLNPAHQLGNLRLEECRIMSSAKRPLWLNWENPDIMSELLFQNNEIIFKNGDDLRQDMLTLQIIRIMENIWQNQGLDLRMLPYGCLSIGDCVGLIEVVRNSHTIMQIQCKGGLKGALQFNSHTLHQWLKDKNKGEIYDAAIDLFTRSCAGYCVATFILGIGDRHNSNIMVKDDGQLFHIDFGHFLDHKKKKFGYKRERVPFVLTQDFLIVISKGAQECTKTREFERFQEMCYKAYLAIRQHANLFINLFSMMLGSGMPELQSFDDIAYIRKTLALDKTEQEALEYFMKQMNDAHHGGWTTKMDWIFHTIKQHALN
Sequence of PI3K (P27986 whole entry partner): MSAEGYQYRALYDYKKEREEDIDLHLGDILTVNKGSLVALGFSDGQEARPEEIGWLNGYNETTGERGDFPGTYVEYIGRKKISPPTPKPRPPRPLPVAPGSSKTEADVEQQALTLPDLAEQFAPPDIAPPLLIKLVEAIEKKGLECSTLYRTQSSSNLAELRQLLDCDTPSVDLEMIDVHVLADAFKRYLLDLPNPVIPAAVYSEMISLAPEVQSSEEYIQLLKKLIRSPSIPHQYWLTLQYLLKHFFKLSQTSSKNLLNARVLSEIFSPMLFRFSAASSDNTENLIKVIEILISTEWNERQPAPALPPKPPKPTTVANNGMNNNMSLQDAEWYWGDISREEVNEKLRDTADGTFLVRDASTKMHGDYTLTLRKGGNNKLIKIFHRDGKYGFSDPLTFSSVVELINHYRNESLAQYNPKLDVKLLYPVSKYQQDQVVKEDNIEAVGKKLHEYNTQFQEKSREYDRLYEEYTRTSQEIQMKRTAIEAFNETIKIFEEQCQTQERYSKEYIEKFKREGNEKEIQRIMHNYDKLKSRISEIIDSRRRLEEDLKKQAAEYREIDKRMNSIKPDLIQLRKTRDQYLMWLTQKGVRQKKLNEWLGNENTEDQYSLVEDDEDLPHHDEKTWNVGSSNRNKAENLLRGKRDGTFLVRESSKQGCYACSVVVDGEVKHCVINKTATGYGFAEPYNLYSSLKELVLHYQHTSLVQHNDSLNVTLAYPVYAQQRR

| Compound | pIC50 (prostate line LNCap) | pIC50 (PI3K) | pIC50 (breast line MDA468) |
| --- | --- | --- | --- |
| CNC(=O)Nc1ccc(-c2nc(N3CCOCC3)c3cnn(C4CCN(Cc5cccnc5)CC4)c3n2)cc1F [Compound 597, 1-(2-fluoro-4-{4-morpholin-4-yl-1-[1-(pyridin-3-ylmethyl)piperidin-4-yl]-1H-pyrazolo[3,4-d]pyrimidin-6-yl}phenyl)-3-methylurea] | 7.57 | 6.61 | 6.74 |
| O=C(Nc1ccncc1)Nc1ccc(-c2nc(N3CCOCC3)c3cnn(C4CCN(Cc5cccnc5)CC4)c3n2)cc1F [Compound 599, 1-(2-fluoro-4-{4-morpholin-4-yl-1-[1-(pyridin-3-ylmethyl)piperidin-4-yl]-1H-pyrazolo[3,4-d]pyrimidin-6-yl}phenyl)-3-pyridin-4-ylurea] | > 7.57 | 7.47 | 7.09 |
| CNC(=O)Nc1ccc(-c2nc(N3CCOCC3)c3cnn(C4CCN(C(=O)c5ccccc5Cl)CC4)c3n2)cc1 [Compound 601, 1-(4-{1-[1-(2-chlorobenzoyl)piperidin-4-yl]-4-morpholin-4-yl-1H-pyrazolo[3,4-d]pyrimidin-6-yl}phenyl)-3-methylurea] | > 7.57 | 7.10 | > 7.57 |
| CNC(=O)Nc1ccc(-c2nc(N3CCOCC3)c3cnn(C4CCN(C(=O)c5ccccc5C)CC4)c3n2)cc1 [Compound 602, 1-methyl-3-(4-{1-[1-(2-methylbenzoyl)piperidin-4-yl]-4-morpholin-4-yl-1H-pyrazolo[3,4-d]pyrimidin-6-yl}phenyl)urea] | > 7.57 | 7.03 | 7.15 |
| CNC(=O)Nc1ccc(-c2nc(N3CCOCC3)c3cnn(C4CCN(C(=O)c5cccc(Cl)c5)CC4)c3n2)cc1 [Compound 604, 1-(4-{1-[1-(3-chlorobenzoyl)piperidin-4-yl]-4-morpholin-4-yl-1H-pyrazolo[3,4-d]pyrimidin-6-yl}phenyl)-3-methylurea] | > 7.57 | 7.28 | 7.30 |

Continued, in another order:

| pIC50 (prostate line LNCap) | pIC50 (PI3K) | Compound | pIC50 (breast line MDA468) |
| --- | --- | --- | --- |
| 6.64 | 6.31 | CCNC(=O)Nc1ccc(-c2nc(N3CCOCC3)c3cnn(C4CCN(Cc5ccccc5)CC4)c3n2)cc1F [Compound 596, 1-{4-[1-(1-benzylpiperidin-4-yl)-4-morpholin-4-yl-1H-pyrazolo[3,4-d]pyrimidin-6-yl]-2-fluorophenyl}-3-ethylurea] | 5.60 |
| 7.15 | 7.39 | O=C(Nc1ccccc1)Nc1ccc(-c2nc(N3CCOCC3)c3cnn(C4CCN(Cc5cccnc5)CC4)c3n2)cc1F [Compound 598, 1-(2-fluoro-4-{4-morpholin-4-yl-1-[1-(pyridin-3-ylmethyl)piperidin-4-yl]-1H-pyrazolo[3,4-d]pyrimidin-6-yl}phenyl)-3-phenylurea] | 6.44 |
| > 7.57 | 7.06 | CNC(=O)Nc1ccc(-c2nc(N3CCOCC3)c3cnn(C4CCN(C(=O)c5cccc(F)c5)CC4)c3n2)cc1 [Compound 603, 1-(4-{1-[1-(3-fluorobenzoyl)piperidin-4-yl]-4-morpholin-4-yl-1H-pyrazolo[3,4-d]pyrimidin-6-yl}phenyl)-3-methylurea] | 7.10 |
| 7.35 | 7.12 | CNC(=O)Nc1ccc(-c2nc(N3CCOCC3)c3cnn(C4CCN(C(=O)c5cccc(C(F)(F)F)c5)CC4)c3n2)cc1 [Compound 605, 1-methyl-3-[4-(4-morpholin-4-yl-1-{1-[3-(trifluoromethyl)benzoyl]piperidin-4-yl}-1H-pyrazolo[3,4-d]pyrimidin-6-yl)phenyl]urea] | 6.80 |
| 7.28 | 7.47 | CNC(=O)Nc1ccc(-c2nc(N3CCOCC3)c3cnn(C4CCN(C(=O)c5ccc(Br)cc5)CC4)c3n2)cc1 [Compound 606, 1-(4-{1-[1-(4-bromobenzoyl)piperidin-4-yl]-4-morpholin-4-yl-1H-pyrazolo[3,4-d]pyrimidin-6-yl}phenyl)-3-methylurea] | 6.74 |
